Results taken from US11040035B2, “3-oxo-2,6-diphenyl-2,3-dihydropyridazine-4-carboxamides” (BAYER PHARMA AKTIENGESELLSCHAFT, priority 2016, dated 2021).

Tests used:
AHR [1] = target: T1, AHR (Homo sapiens, UniProt P35869); test: In vitro assay 1: antagonism in human cell line (transactivation assay, kynurenic acid prestimulated); conditions: Assay 1: AHR-luc Hum Antagonism IC50 [M], 150 μM kynurenic acid, 20 hours, firefly luciferase
T1 sequence (P35869 11-848): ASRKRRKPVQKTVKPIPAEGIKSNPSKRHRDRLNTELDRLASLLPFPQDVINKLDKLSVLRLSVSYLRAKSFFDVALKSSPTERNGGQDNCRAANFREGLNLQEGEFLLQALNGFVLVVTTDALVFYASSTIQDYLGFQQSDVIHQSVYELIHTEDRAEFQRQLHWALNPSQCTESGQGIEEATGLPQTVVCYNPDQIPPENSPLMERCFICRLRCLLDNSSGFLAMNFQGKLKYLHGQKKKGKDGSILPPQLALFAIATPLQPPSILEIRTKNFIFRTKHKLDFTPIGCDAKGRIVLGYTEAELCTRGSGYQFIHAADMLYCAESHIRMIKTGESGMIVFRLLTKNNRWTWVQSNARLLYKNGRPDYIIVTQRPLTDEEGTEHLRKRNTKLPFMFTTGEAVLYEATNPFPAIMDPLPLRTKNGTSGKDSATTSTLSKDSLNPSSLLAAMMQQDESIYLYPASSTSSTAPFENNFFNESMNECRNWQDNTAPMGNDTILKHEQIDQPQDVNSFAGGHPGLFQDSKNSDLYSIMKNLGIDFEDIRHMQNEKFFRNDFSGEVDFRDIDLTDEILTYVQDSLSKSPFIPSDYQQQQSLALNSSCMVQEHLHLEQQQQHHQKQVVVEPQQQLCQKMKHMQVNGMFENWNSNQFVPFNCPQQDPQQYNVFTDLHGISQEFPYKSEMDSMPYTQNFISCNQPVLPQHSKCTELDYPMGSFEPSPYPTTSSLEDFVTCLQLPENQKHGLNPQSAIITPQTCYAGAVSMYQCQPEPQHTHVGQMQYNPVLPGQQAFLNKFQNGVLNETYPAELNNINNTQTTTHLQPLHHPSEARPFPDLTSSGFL

[2] = test system: AHR-regulated gene CYP1A1; test: In vitro assay 3: AHR-regulated CYP1A1 expression in human cell line (U937, qPCR); conditions: Homo sapiens, U-937, 6 h, read-out: Assay 3: Hum CYP1A1 Antagonism IC50 [M], U937 cells, 200 μM KA, 6 hours, qPCR
AHR [3] = target: T1, AHR; test: In vitro assay 2: agonism in human cell line (transactivation assay); conditions: Assay 2: AHR-luc Hum Agonism IC50 [M], no kynurenic acid, 20 hours, firefly luciferase
Description: Transactivation Assay in Human Cell Line (In Vitro Assays 1 and 2)
Transactivation assays were carried out in U87 glioblastoma cells (ATCC) endogenously expressing AHR. In addition the cells were stably transfected with an AHR inducible firefly luciferase reporter gene construct that carried AHR-binding sites (DRE) in its promoter and a renilla reporter gene construct with constitutively active promoter.
In Vitro Assay 2: Agonism in Human Cell Line
Cells in medium (tryptophan free RPMI, 1% FCS, 2 mM Glutamine) were grown for 20 hours in absence (negative control) or presence of increasing concentrations of test compounds (typical dilutions: 72 pmol/L, 0.25 nmol/L, 0.89 nmol/L; 3.1 nmol/L, 11 nmol/L, 38 nmol/L, 130 nmol/L, 470 nmol/L, 1.6 μmol/L, 5.7 μmol/L and 20 μmol/L in duplicates). As positive activation control cells were incubated with 300 μM kynurenic acid. Normalization was done by positive and negative controls.
Firefly luciferase activity was determined by the SteadyGlo Luciferase Assay System (Promega, #2520).

SMILES | IC50 (AHR [1]) [M] | IC50 [2] [M] | IC50 (AHR [3]) [M]
O=C(N[C@@H]1CCC[C@@H]1O)c1cc(-c2ccc(Cl)cc2)nn(-c2cccc(F)c2)c1=O (relative stereo) [Example 109, 6-(4-Chlorophenyl)-2-(3-fluorophenyl)-N-(cis-2-hydroxycyclopentyl)-3-oxo-2,3-dihydropyridazine-4-carboxamide] | – | 3.61e-08 | > 2e-05
Cc1ccc(-c2cc(C(=O)N[C@@H](CO)C(C)C)c(=O)n(-c3cccc(F)c3)n2)cc1 [Example 3, 2-(3-Fluorophenyl)-N-[(2R)-1-hydroxy-3-methylbutan-2-yl]-6-(4-methylphenyl)-3-oxo-2,3-dihydropyridazine-4-carboxamide] | 3.03e-07 | 1.31e-07 | –
Cc1ccc(-c2cc(C(=O)NC(CO)C(C)C)c(=O)n(-c3ccccc3)n2)cc1 (stereo not drawn) [Example 70, N-(1-hydroxy-3-methylbutan-2-yl)-6-(4-methylphenyl)-3-oxo-2-phenyl-2,3-dihydropyridazine-4-carboxamide] | 9.22e-08 | 1.26e-07 | –
Cc1ccc(-c2cc(C(=O)N[C@@H](C)CO)c(=O)n(-c3cccc(F)c3)n2)cc1C [Example 89, 6-(3,4-dimethylphenyl)-2-(3-fluorophenyl)-N-[(2S)-1-hydroxypropan-2-yl]-3-oxo-2,3-dihydropyridazine-4-carboxamide] | 1.15e-07 | 1.88e-07 | –
COC(=O)C(C)(C)CNC(=O)c1cc(-c2ccc(Cl)cc2)nn(-c2cccc(F)c2)c1=O [Example 398, methyl 3-({[6-(4-chlorophenyl)-2-(3-fluorophenyl)-3-oxo-2,3-dihydropyridazin-4-yl]carbonyl}amino)-2,2-dimethylpropanoate] | 4.2e-07 | – | > 2e-05
CC(C)(CNC(=O)c1cc(-c2ccc(Cl)cc2)nn(-c2cccc(F)c2)c1=O)C(=O)O [Example 399, 3-({[6-(4-Chlorophenyl)-2-(3-fluorophenyl)-3-oxo-2,3-dihydropyridazin-4-yl]carbonyl}amino)-2,2-dimethylpropanoic acid] | 7.2e-07 | – | > 2e-05
C[C@@H](CO)NC(=O)c1cc(-c2ccc(Cl)cc2)nn(-c2cccc(C#N)c2)c1=O [Example 400, 6-(4-chlorophenyl)-2-(3-cyanophenyl)-N-[(2S)-1-hydroxypropan-2-yl]-3-oxo-2,3-dihydropyridazine-4-carboxamide] | 8e-07 | – | > 2e-05
CC(C)[C@@H](CO)NC(=O)c1cc(-c2ccc(Cl)c(F)c2)nn(-c2cc(F)cc(F)c2)c1=O [Example 401, 6-(4-chloro-3-fluorophenyl)-2-(3,5-difluorophenyl)-N-[(2S)-1-hydroxy-3-methylbutan-2-yl]-3-oxo-2,3-dihydropyridazine-4-carboxamide] | 1e-07 | – | > 2e-05
C[C@@H](CO)NC(=O)c1cc(-c2ccc(Cl)c(F)c2)nn(-c2cc(F)cc(F)c2)c1=O [Example 402, 6-(4-chloro-3-fluorophenyl)-2-(3,5-difluorophenyl)-N-[(2S)-1-hydroxypropan-2-yl]-3-oxo-2,3-dihydropyridazine-4-carboxamide] | 3.7e-07 | – | > 2e-05
O=C(NCC(O)C(F)(F)F)c1cc(-c2ccc(Cl)c(F)c2)nn(-c2cc(F)cc(F)c2)c1=O (stereo not drawn) [Example 403, 6-(4-chloro-3-fluorophenyl)-2-(3,5-difluorophenyl)-3-oxo-N-(3,3,3-trifluoro-2-hydroxypropyl)-2,3-dihydropyridazine-4-carboxamide] | 3.1e-07 | – | > 2e-05

Other lines, results leading:

IC50 (AHR [1]) [M] | IC50 [2] [M] | IC50 (AHR [3]) [M] | SMILES
1.97e-08 | 1.82e-08 | > 2e-05 | CC(O)C(NC(=O)c1cc(-c2ccc(Cl)cc2)nn(-c2cccc(F)c2)c1=O)C(F)(F)F (mixture of isomers) [Example 197, 6-(4-Chlorophenyl)-2-(3-fluorophenyl)-3-oxo-N-[(2RS, 3RS)-1,1,1-trifluoro-3-hydroxybutan-2-yl]-2,3-dihydropyridazine-4-carboxamide and 6-(4-Chlorophenyl)-2-(3-fluorophenyl)-3-oxo-N-[(2RS, 3SR)-1,1,1-trifluoro-3-hydroxybutan-2-yl]-2,3-dihydropyridazine-4-carboxamide]
3.27e-08 | 3.21e-08 | > 2e-05 | O=C(NC(CO)C1CCC1)c1cc(-c2ccc(Cl)cc2)nn(-c2cccc(F)c2)c1=O (racemic) [Example 209, 6-(4-Chlorophenyl)-N-[(1RS)-1-cyclobutyl-2-hydroxyethyl]-2-(3-fluorophenyl)-3-oxo-2,3-dihydropyridazine-4-carboxamide]
3.72e-08 | 5.44e-08 | > 2e-05 | CC(CO)CNC(=O)c1cc(-c2ccc(C(F)(F)F)cc2)nn(-c2cccc(F)c2)c1=O (racemic) [Example 245, 2-(3-Fluorophenyl)-N-[(2RS)-3-hydroxy-2-methylpropyl]-3-oxo-6-[4-(trifluoromethyl)phenyl]-2,3-dihydropyridazine-4-carboxamide]
8.35e-08 | 1.71e-07 | > 2e-05 | CC(O)CCNC(=O)c1cc(-c2ccc(C(F)(F)F)cc2)nn(-c2cccc(F)c2)c1=O (racemic) [Example 247, 2-(3-Fluorophenyl)-N-[(3RS)-3-hydroxybutyl]-3-oxo-6-[4-(trifluoromethyl)phenyl]-2,3-dihydropyridazine-4-carboxamide]
2.89e-08 | 3.62e-08 | > 2e-05 | CC(CCO)NC(=O)c1cc(-c2ccc(C(F)(F)F)cc2)nn(-c2cccc(F)c2)c1=O (racemic) [Example 253, 2-(3-Fluorophenyl)-N-[(2RS)-4-hydroxybutan-2-yl]-3-oxo-6-[4-(trifluoromethyl)phenyl]-2,3-dihydropyridazine-4-carboxamide]
5.51e-08 | 9.15e-08 | > 2e-05 | O=C(NC(CO)CCO)c1cc(-c2ccc(C(F)(F)F)cc2)nn(-c2cccc(F)c2)c1=O (racemic) [Example 262, N-[(2RS)-1,4-Dihydroxybutan-2-yl]-2-(3-fluorophenyl)-3-oxo-6-[4-(trifluoromethyl)phenyl]-2,3-dihydropyridazine-4-carboxamide]
3.54e-08 | 6.06e-08 | > 2e-05 | O=C(NC(CO)C1CCCO1)c1cc(-c2ccc(C(F)(F)F)cc2)nn(-c2cccc(F)c2)c1=O (racemic) [Example 263, 3,6-Anhydro-2,4,5-trideoxy-2-[({2-(3-fluorophenyl)-3-oxo-6-[4-(trifluoromethyl)phenyl]-2,3-dihydropyridazin-4-yl}carbonyl)amino]-DL-erythro-hexitol and 1,4-anhydro-2,3,5-trideoxy-5-[({2-(3-fluorophenyl)-3-oxo-6-[4-(trifluoromethyl)phenyl]-2,3-dihydropyridazin-4-yl}carbonyl)amino]-DL-threo-hexitol]
2.98e-08 | 3.1e-08 | – | Cc1ccc(-c2cc(C(=O)NC(CO)C(C)C)c(=O)n(-c3cccc(F)c3)n2)cc1 (stereo not drawn) [Example 1, 2-(3-Fluorophenyl)-N-(1-hydroxy-3-methylbutan-2-yl)-6-(4-methylphenyl)-3-oxo-2,3-dihydropyridazine-4-carboxamide]
6.4e-08 | 1.23e-07 | – | Cc1ccc(-c2cc(C(=O)NC(C)CO)c(=O)n(-c3cccc(F)c3)n2)cc1 (stereo not drawn) [Example 7, 2-(3-Fluorophenyl)-N-(1-hydroxypropan-2-yl)-6-(4-methylphenyl)-3-oxo-2,3-dihydropyridazine-4-carboxamide]
1.89e-08 | 3.54e-08 | – | CC[C@@H](CO)NC(=O)c1cc(-c2ccc(Cl)cc2)nn(-c2cccc(F)c2)c1=O [Example 21, 6-(4-Chlorophenyl)-2-(3-fluorophenyl)-N-[(2S)-1-hydroxybutan-2-yl]-3-oxo-2,3-dihydropyridazine-4-carboxamide]
3.6e-08 | 2.39e-08 | – | Cc1ccc(-c2cc(C(=O)N[C@H](CO)C(C)C)c(=O)n(-c3cccc(F)c3)n2)cc1C [Example 83, 6-(3,4-dimethylphenyl)-2-(3-fluorophenyl)-N-[(2S)-1-hydroxy-3-methylbutan-2-yl]-3oxo-2,3-dihydropyridazine-4-carboxamide]
4.55e-08 | 4.83e-08 | – | CC[C@@H](CO)NC(=O)c1cc(-c2ccc(C)c(C)c2)nn(-c2cccc(F)c2)c1=O [Example 86, 6-(3,4-dimethylphenyl)-2-(3-fluorophenyl)-N-[(2S)-1-hydroxybutan-2-yl]-3-oxo-2,3-dihydropyridazine-4-carboxamide]
